Our source for the Km values is article PMC11053098, “Unravelling and reconstructing the biosynthetic pathway of bergenin” (Nature Communications, 2024).

The subject of experiment [1] is T1, AjOMT2.
T1 construct: cloned in pET28a (BamHI/EcoRI), E. coli Transetta (DE3), Ni-NTA purified
The experiment can be described thus: HPLC methyltransferase assay. The class given is biochemical, Ardisia japonica. To be noted: co-substrate SAM; metal-dependent (Mg2+); details in Supplementary Methods 5-7; read-out: apparent Km.

Experiment [2] deals with T2, AjCGT1.
T2 construct: full-length cDNA in pET28a (BamHI/EcoRI), E. coli Transetta (DE3), Ni-NTA purified
Nature of the experiment: HPLC glycosyltransferase assay. It counts as biochemical, Ardisia japonica. The conditions noted are these: co-substrate UDP-Glc; details in Supplementary Methods 5-7; substrate unstable in buffer; read-out: apparent Km.

On to `O=C(O)c1cc(O)c(O)c(O)c1` [compound 2, GA], for which the Km in experiment [1] is 72 µM.
Consider `COc1c(O)cc(C(=O)O)cc1O` [compound 3, 4-OMGA], for which the Michaelis constant (Km) in experiment [2] is 265 µM.
On to `O=C1O[C@@H]2[C@@H](O)[C@H](O)[C@@H](CO)O[C@H]2c2c1cc(O)c(O)c2O` [compound 6, norbergenin], for which the Km in experiment [1] amounted to 494 µM.

For orientation: Km means the substrate concentration at which the rate is half of its maximum.
